Experimental data as given in US10975068B2, “6-aminopyridin-3-yl thiazoles as modulators of RORγT” (Janssen Pharmaceutica NV, priority 2016, dated 2021).
Read-outs that look alike come from different tables or passages of the source.

Tests used:
[1] = target: human RORγt ligand binding domain (RORγt LBD) (Homo sapiens (Human), UniProt P51449); experiment: RORγt ThermoFluor® assay (thermal shift binding); details: read-out: ThermoFluor® Assay, Kd
Outline: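 His-tagged human RORγt LBD (0.065 mg/mL) with 60 μM 1,8-ANS in 100 mM Hepes pH 7.0, 10 mM NaCl, 2.5 mM GSH, 0.002% Tween-20 was heated at 1 °C/min.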

full-length human RORγt = full-length human RORγt (Homo sapiens (Human), UniProt P51449); experiment: RORγt (full-length human) reporter assay, Conditions B or C; format: cell-based; details: for RORγt (FL) Reporter Assay B or C, % inhibition (value marked *): marked *: footnote not given; for inhibition at 3 µM: at 3 μM compound concentration
Sequence of full-length human RORγt (P51449 other isoform, or with tags, fused parts or gaps): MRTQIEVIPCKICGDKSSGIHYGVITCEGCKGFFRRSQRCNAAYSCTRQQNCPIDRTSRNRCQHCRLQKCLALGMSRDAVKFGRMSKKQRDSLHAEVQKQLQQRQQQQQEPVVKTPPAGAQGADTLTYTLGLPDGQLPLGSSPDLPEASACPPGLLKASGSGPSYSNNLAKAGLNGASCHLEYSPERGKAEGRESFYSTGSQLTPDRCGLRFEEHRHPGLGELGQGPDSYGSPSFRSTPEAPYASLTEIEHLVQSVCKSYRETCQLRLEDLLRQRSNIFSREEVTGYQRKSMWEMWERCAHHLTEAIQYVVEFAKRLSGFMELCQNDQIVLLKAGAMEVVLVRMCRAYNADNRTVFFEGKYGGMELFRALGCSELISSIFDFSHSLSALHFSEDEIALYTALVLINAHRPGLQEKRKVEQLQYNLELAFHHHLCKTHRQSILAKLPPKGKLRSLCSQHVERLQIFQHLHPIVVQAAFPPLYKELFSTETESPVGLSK
Outline: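 HEK293T cells transiently co-transfected with GAL4-DBD–full-length human RORγt (nt 142-1635, NM_001001523.1) plus GAL4-firefly and CMV-Renilla luciferase reporters; compounds added 4-6 h post-transfection for 16-20 h in 1.3% FBS, 0.1% DMSO. Firefly signal normalized to DMSO and saturating reference compound, then to Renilla; IC50 from concentration plots.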

[2] = read-out: RORγt (FL) Reporter Assay B or C, % inhibition
[3] = read-out: RORγt (FL) Reporter Assay B or C, IC50
[4] = Conditions B or C, read-out: RORγt (FL) Reporter Assay B or C, IC50

Sequence of human RORγt ligand binding domain (RORγt LBD) (P51449 other isoform, or with tags, fused parts or gaps): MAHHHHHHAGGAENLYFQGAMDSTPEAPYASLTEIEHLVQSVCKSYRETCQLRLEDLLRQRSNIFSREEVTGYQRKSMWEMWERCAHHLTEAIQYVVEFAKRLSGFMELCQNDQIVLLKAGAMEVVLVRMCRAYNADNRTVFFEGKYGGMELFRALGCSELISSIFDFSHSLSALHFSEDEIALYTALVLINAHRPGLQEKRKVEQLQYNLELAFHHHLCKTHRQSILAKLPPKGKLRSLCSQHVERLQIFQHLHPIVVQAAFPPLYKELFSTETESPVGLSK

| Kd [1] | RORγt (FL) Reporter Assay B or C, % inhibition (value marked *) (full-length human RORγt; Conditions B or C) | inhibition at 3 µM (full-length human RORγt; [2]) | IC50 (full-length human RORγt; [3]) | IC50 (full-length human RORγt; [4]) | Structure (SMILES) | IC50 (full-length human RORγt; RORγt (FL) Reporter Assay B or C, IC50 (μM), Conditions B or C) | IC50 (full-length human RORγt; RORγt (FL) Reporter Assay B or C, IC50) | inhibition at 1 µM (full-length human RORγt; at 1 μM compound concentration, read-out: RORγt (FL) Reporter Assay B or C, % inhibition) |
| --- | --- | --- | --- | --- | --- | --- | --- | --- |
| 0.012 µM | 98* % | – | – | 0.075 µM | CC[C@H](Nc1cc(C(F)F)c(-c2sc(C(=O)N[C@H]3C[C@@H]3O)nc2C(=O)N2CCC[C@@H]2C)cn1)C(F)(F)F (relative stereo) [Example 214, 5-(4-(Difluoromethyl)-6-(((S)-1,1,1-trifluorobutan-2-yl)amino)pyridin-3-yl)-N-((1S*,2S*)-2-hydroxycyclopropyl)-4-((S)-2-methylpyrrolidine-1-carbonyl)thiazole-2-carboxamide] | – | – | – |
| 0.01 µM | – | 97% | 0.063 µM | – | C[C@H]1CCCN1C(=O)c1nc(C(=O)N2CC[C@@](C)(O)C2)sc1-c1cnc(NC(C)(C)C)cc1C(F)(F)F (relative stereo) [Example 366, (5-(6-(tert-Butylamino)-4-(trifluoromethyl)pyridin-3-yl)-2-((R*)-3-hydroxy-3-methylpyrrolidine-1-carbonyl)thiazol-4-yl)-((S)-2-methylpyrrolidin-1-yl)methanone] | – | – | – |
| 0.05 µM | – | 106% | 0.23 µM | – | C[C@H](Nc1cc(C(F)F)c(-c2sc(C(=O)N3CC(S(C)(=O)=O)C3)nc2C(=O)N2CCC[C@@H]2C)cn1)C(F)(F)F [Example 450] | – | – | – |
| 0.00078 µM | 106* % | – | – | 0.02 µM | CC(Nc1cc(C(F)(F)F)c(-c2sc(C(=O)NCC(C)(C)O)nc2C(=O)N2CC(F)(F)C[C@@H]2C)cn1)C1CCC1 (stereo partly drawn) [Example 161, 5-(6-((1-Cyclobutylethyl)amino)-4-(trifluoromethyl)pyridine-3-yl)-4-((S)-4,4-difluoro-2-methylpyrrolidine-1-carbonyl)-N-(2-hydroxy-2-methylpropyl)thiazole-2-carboxamide] | – | – | – |
| 0.0018 µM | – | 106% | 0.049 µM | – | C[C@H](NC(=O)c1nc(C(=O)N2CCC[C@@H]2C)c(-c2cnc(NC3(C)CCC3)cc2C(F)F)s1)C(C)(C)O [Example 322, 5-(4-(Difluoromethyl)-6-((1-methylcyclobutyl)amino)pyridin-3-yl)-N—((S)-3-hydroxy-3-methylbutan-2-yl)-4-((S)-2-methylpyrrolidine-1-carbonyl)thiazole-2-carboxamide] | – | – | – |
| 0.0014 µM | – | 106% | 0.007 µM | – | C[C@H]1CCCN1C(=O)c1nc(C(=O)N[C@H](C)C(C)(C)O)sc1-c1cnc(NCC(C)(C)C)cc1C(F)(F)F [Example 334, 5-[6-(2,2-Dimethylpropylamino)-4-(trifluoromethyl)-3-pyridyl]-N-[(1R)-2-hydroxy-1,2-dimethyl-propyl]-4-[(2S)-2-methylpyrrolidine-1-carbonyl]thiazole-2-carboxamide] | – | – | – |
| 0.004 µM | – | 99% | 0.021 µM | – | C[C@@H](CO)NC(=O)c1nc(C(=O)N2CCC[C@@H]2C)c(-c2cnc(NC(C)(C)C)cc2C(F)(F)F)s1 [Example 362, 5-[6-(tert-Butylamino)-4-(trifluoromethyl)-3-pyridyl]-N-[(1S)-2-hydroxy-1-methyl-ethyl]-4-[(2S)-2-methylpyrrolidine-1-carbonyl]thiazole-2-carboxamide] | – | – | – |
| 0.0024 µM | – | 113% | 0.011 µM | – | C[C@H]1CC(F)(F)CN1C(=O)c1nc(C(=O)NCC(C)(C)O)sc1-c1cnc(NCC2(C)CC2)cc1C(F)(F)F [Example 277, 4-[(2S)-4,4-Difluoro-2-methyl-pyrrolidine-1-carbonyl]-N-(2-hydroxy-2-methyl-propyl)-5-[6-[(1-methylcyclopropyl)methylamino]-4-(trifluoromethyl)-3-pyridyl]thiazole-2-carboxamide] | – | – | – |
| 0.00017 µM | 105* % | – | – | 0.0093 µM | C[C@H]1CCCCN1C(=O)c1nc(C(=O)NCC(C)(C)O)sc1-c1cnc(NC2(C)CCC2)cc1C(F)(F)F [Example 81, (S)—N-(2-Hydroxy-2-methylpropyl)-5-(6-((1-methylcyclobutyl)amino)-4-(trifluoromethyl)pyridin-3-yl)-4-(2-methylpiperidine-1-carbonyl)thiazole-2-carboxamide] | – | – | – |
| 0.017 µM | 96* % | – | – | 0.31 µM | C[C@H](Nc1cc(C(F)F)c(-c2sc(C(=O)N[C@H]3C[C@@H]3O)nc2C(=O)N2CCC[C@@H]2C)cn1)C(F)(F)F (single isomer, unassigned) [Example 158, 5-(4-(Difluoromethyl)-6-(((S)-1,1,1-trifluoropropan-2-yl)amino)pyridin-3-yl)-N-((1S*,2S*)-2-hydroxycyclopropyl)-4-((S)-2-methylpyrrolidine-1-carbonyl)thiazole-2-carboxamide] | – | – | – |
| 0.00078 µM | – | 98% | 0.03 µM | – | C[C@H](NC(=O)c1nc(C(=O)N2CCC[C@@H]2C)c(-c2cnc(N[C@H](C3CC3)C(F)(F)F)cc2C(F)F)s1)C(C)(C)O [Example 333, 5-(6-(((R)-1-Cyclopropyl-2,2,2-trifluoroethyl)amino)-4-(difluoromethyl)pyridin-3-yl)-N—((S)-3-hydroxy-3-methylbutan-2-yl)-4-((S)-2-methylpyrrolidine-1-carbonyl)thiazole-2-carboxamide] | – | – | – |
| 0.0053 µM | – | 111% | 0.011 µM | – | C[C@H]1CCCN1C(=O)c1nc(C(=O)N(C)CC(C)(C)O)sc1-c1cnc(NC(C)(C)C)cc1C(F)(F)F [Example 340, 5-[6-(tert-Butylamino)-4-(trifluoromethyl)-3-pyridyl]-N-(2-hydroxy-2-methyl-propyl)-N-methyl-4-[(2S)-2-methylpyrrolidine-1-carbonyl]thiazole-2-carboxamide] | – | – | – |
| 0.016 µM | – | 95% | 0.013 µM | – | CCNC(=O)c1nc(C(=O)N2CCC[C@@H]2C)c(-c2cnc(NC(C)(C)C)cc2C(F)(F)F)s1 [Example 309, (S)-5-(6-(tert-Butylamino)-4-(trifluoromethyl)pyridin-3-yl)-N-ethyl-4-(2-methylpyrrolidine-1-carbonyl)thiazole-2-carboxamide] | – | – | – |

| Structure (SMILES) | Kd [1] | RORγt (FL) Reporter Assay B or C, % inhibition (value marked *) (full-length human RORγt; Conditions B or C) | inhibition at 3 µM (full-length human RORγt; [2]) | IC50 (full-length human RORγt; [3]) | IC50 (full-length human RORγt; [4]) | IC50 (full-length human RORγt; RORγt (FL) Reporter Assay B or C, IC50 (μM), Conditions B or C) | IC50 (full-length human RORγt; RORγt (FL) Reporter Assay B or C, IC50) | inhibition at 1 µM (full-length human RORγt; at 1 μM compound concentration, read-out: RORγt (FL) Reporter Assay B or C, % inhibition) |
| --- | --- | --- | --- | --- | --- | --- | --- | --- |
| CC[C@H](Nc1cc(C(F)(F)F)c(-c2sc(C(=O)N[C@H]3COC[C@@H]3O)nc2C(=O)N2C3CCC2CC3)cn1)C(F)(F)F [Example 156] | 0.001 µM | 102* % | – | – | – | 0.044 µM | – | – |
| C[C@H](NC(=O)c1nc(C(=O)N2C3CCC2CC3)c(-c2cnc(N[C@@H](C)C(F)(F)F)cc2C(F)F)s1)C(C)(C)O [Example 446, 4-((1s,4s)-7-Azabicyclo[2.2.1]heptane-7-carbonyl)-5-[4-(difluoromethyl)-6-[[(1S)-2,2,2-trifluoro-1-methyl-ethyl]amino]-3-pyridyl]-N-[(1S)-2-hydroxy-1,2-dimethyl-propyl]thiazole-2-carboxamide] | 0.013 µM | – | 108% | 0.18 µM | – | – | – | – |
| O=C(N[C@@H]1COC[C@H]1O)c1nc(C(=O)N2C3CCC2CC3)c(-c2cnc(N[C@@H](C3CC3)C(F)(F)F)cc2C(F)F)s1 [Example 442, 4-((1s,4s)-7-Azabicyclo[2.2.1]heptane-7-carbonyl)-5-[6-[[(1S)-1-cyclopropyl-2,2,2-trifluoro-ethyl]amino]-4-(difluoromethyl)-3-pyridyl]-N-[(3R,4S)-4-hydroxytetrahydrofuran-3-yl]thiazole-2-carboxamide] | 0.0016 µM | – | – | – | – | – | 0.32 µM | 96% |
